Assay [1] is described as follows: A Cell Based Secondary Assay To Explore Cytotoxicity of Compounds that Sensitize Mycobacterium Tuberculosis to Beta-Lactam Antibiotics. The assay is classed as functional.
Assay [2] deals with T1, Sentrin-specific protease 7 (Homo sapiens, UniProt Q9BQF6).
T1 sequence (Q9BQF6 whole entry): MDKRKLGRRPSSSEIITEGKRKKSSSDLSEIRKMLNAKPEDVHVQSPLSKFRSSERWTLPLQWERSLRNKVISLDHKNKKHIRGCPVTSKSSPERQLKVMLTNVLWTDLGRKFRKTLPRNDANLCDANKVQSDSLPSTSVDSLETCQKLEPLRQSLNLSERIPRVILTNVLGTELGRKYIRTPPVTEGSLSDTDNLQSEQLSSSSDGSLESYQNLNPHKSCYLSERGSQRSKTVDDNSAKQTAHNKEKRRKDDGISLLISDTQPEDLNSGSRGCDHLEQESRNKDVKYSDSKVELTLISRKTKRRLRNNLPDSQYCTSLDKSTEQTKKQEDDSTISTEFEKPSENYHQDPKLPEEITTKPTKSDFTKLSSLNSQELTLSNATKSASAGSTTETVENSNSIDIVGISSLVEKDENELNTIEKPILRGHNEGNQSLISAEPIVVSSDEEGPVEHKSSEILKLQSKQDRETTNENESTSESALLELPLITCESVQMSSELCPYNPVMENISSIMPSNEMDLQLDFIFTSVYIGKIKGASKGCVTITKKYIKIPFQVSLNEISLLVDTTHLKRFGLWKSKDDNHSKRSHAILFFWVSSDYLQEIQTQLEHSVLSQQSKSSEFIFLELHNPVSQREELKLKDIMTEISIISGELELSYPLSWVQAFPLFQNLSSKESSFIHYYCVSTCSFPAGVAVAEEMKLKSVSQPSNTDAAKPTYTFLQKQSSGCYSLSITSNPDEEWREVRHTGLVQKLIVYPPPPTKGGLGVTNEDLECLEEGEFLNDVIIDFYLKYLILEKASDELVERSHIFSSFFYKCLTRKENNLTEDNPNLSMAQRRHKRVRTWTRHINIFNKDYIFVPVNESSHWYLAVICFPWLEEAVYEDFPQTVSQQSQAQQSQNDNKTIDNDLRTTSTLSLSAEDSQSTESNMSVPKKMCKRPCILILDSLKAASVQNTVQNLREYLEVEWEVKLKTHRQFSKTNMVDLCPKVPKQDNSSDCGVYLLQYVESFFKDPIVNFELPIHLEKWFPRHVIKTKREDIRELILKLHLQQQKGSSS
The assay is classed as functional.

A further assay deals with T2, Caspase-3 (Homo sapiens, UniProt P42574).
T2 sequence (P42574 whole entry): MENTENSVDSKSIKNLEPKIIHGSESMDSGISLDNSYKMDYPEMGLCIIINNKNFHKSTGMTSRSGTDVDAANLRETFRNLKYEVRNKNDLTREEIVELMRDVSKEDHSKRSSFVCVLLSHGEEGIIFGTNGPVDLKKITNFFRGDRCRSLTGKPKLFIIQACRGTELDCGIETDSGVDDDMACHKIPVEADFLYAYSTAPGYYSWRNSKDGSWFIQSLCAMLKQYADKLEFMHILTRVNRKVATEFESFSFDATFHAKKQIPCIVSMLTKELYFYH
Type of assay: functional.

The target in assay [3] is T3, Sentrin-specific protease 8 (Homo sapiens, UniProt Q96LD8).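 Further: luminescence read-out of SENP8 inhibition, dose-response confirmation following an ultra-high-throughput screen.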
T3 sequence (Q96LD8 whole entry): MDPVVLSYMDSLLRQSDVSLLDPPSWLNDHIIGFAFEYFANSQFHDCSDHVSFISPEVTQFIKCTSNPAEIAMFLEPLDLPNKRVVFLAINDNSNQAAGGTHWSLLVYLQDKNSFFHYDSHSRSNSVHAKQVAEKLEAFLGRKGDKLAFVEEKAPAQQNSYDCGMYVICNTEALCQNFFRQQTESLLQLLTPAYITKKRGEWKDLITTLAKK
Type of assay: functional.

In assay [4] the target is T4, Sentrin-specific protease 6 (Homo sapiens, UniProt Q9GZR1).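 Further: Luminescence-based dose-response confirmatory assay of SENP6 inhibition, following up an ultra-high-throughput screen.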
T4 sequence (Q9GZR1 whole entry): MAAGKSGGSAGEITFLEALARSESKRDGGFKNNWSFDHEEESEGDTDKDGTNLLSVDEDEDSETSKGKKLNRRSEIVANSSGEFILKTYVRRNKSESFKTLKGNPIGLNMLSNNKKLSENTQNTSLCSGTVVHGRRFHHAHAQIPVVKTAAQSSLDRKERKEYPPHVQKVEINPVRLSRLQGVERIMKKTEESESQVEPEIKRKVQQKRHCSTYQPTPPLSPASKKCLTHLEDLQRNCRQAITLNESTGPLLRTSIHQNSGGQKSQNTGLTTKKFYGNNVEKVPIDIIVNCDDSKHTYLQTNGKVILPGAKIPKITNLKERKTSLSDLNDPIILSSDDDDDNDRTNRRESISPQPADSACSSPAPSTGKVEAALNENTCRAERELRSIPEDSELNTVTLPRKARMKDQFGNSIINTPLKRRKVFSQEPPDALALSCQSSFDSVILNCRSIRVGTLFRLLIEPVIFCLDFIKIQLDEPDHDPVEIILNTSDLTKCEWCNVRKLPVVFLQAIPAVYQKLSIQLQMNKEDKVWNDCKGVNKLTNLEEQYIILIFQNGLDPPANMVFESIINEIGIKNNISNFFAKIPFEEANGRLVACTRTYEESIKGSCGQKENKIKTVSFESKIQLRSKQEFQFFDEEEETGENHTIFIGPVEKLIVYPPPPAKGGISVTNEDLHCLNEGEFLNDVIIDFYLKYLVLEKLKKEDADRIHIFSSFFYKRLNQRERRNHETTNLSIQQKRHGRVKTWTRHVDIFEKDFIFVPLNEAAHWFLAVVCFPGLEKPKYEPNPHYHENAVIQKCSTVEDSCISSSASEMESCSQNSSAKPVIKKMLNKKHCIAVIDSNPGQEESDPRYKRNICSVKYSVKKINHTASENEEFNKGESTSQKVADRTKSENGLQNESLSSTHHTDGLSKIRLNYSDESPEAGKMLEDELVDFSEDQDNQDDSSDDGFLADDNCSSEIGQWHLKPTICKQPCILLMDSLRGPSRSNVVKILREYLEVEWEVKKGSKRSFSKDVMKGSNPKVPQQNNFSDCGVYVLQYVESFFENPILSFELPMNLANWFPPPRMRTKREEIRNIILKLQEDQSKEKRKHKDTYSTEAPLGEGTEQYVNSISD
Type of assay: functional.

Assay [5] is described as follows: viability of PTEN-deleted HCT116 cells – cell-based, HCT116 PTEN knockout, dose response (AID 1047).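 Further: HCT116 colon tumor cells with PTEN knocked out; cells exposed to compound for 60 hours before readout; potency for loss of cell viability measured by luminescence.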 Type of assay: functional.
A short description of assay [6]: viability of HCT116 lacking mutant beta-catenin – cell-based, human colon tumor, dose response (AID 1045).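 Further: HCT116 colon tumor cells with beta catenin knocked out; cells exposed to compound for 60 hours.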 The assay is classed as functional.
A short description of assay [7]: blockers of CRF-binding protein–CRF-R2 complex – cell-based, uHTS hits, 384-well, dose response (AID 651639). The assay is classed as functional, Homo sapiens. As to conditions: read-out: IC50_Mean.
The target in assay [8] is T5, Corticotropin-releasing factor receptor 2/Corticotropin-releasing factor-binding protein (Homo sapiens, UniProt P24387+Q13324).
T5 sequence (Q13324 whole entry): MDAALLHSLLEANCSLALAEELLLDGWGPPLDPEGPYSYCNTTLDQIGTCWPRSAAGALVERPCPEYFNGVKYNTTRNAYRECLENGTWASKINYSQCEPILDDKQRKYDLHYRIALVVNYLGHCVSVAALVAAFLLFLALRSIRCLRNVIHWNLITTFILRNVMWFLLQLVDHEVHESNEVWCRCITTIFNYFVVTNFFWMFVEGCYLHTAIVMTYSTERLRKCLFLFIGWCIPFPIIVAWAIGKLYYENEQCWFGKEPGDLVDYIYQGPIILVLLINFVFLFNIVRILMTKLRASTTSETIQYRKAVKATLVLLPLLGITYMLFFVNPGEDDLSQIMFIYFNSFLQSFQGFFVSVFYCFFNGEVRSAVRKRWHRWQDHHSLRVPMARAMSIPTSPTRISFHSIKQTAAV
T5 sequence (P24387 whole entry): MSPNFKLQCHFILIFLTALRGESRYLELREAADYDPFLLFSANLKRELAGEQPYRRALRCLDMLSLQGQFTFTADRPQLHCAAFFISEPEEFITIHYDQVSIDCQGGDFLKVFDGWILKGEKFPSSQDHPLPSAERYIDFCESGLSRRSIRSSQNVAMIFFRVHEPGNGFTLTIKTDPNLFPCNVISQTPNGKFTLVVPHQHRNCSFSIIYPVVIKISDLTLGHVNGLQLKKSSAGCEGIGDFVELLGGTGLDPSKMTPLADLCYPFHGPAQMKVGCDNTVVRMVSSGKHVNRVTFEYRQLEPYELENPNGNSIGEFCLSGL
The assay can be described thus: Dose Response confirmation of uHTS hits for small molecule antagonists of the CRF-binding protein and CRF-R2 receptor complex. As to conditions: read-out: IC50_Mean. The assay is classed as functional.

Assay [9] addresses T5, Corticotropin-releasing factor receptor 2/Corticotropin-releasing factor-binding protein. Nature of the assay: activators of CRF receptor 2 with binding protein – uHTS hits, confirmation (AID 602473). The note with it: read-out: EC50_Mean. The assay is classed as functional.
Assay [10] is described as follows: NIH-3T3 fibroblast cytotoxicity, dose response, cytotoxicity control, cell-based, fluorescence, Alamar Blue, secondary assay (AID 2327).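 Further: NIH-3T3 mouse fibroblasts cultured with fluconazole at 8 µg/mL.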 The assay is classed as functional.
The nature of assay [11]: alpha-synuclein stem-loop luciferase translation blockers – H4 neuroglioma cells, luminescence, confirmation (AID 1988). The assay is classed as functional, cell-based.
Assay [12] is described as follows: Luminescence Cell-Based Dose Response HTS to Identify Inhibitors of 5'UTR Stem-Loop Driven Prion Protein mRNA Translation in H4 Neuroglioblastoma Cells. [Related pubchem assays: 1827 (Project Summary), 1813 (Primary HTS)]. The assay is classed as functional.
The nature of assay [13]: luciferase reporter signal suppression in cells – H4 neuroglioma cells, luminescence, dose response (AID 1990). The assay is classed as functional, cell-based. (In general: In a reporter assay the amount or activity of a reporter protein is the signal.)
A short description of assay [14]: fluconazole-exposed Candida albicans growth modulators – fluorescence, retest, confirmation (AID 2467). The assay is classed as functional, cell-based.
Assay [15] can be described thus: NIH3T3 cell viability loss – ATP luminescence, mouse fibroblasts, counter-screen, dose response (AID 2010).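 Further: cells exposed to compound for about 90 hours before reading.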 The assay is classed as functional, cell-based. (In general: A counterscreen serves to expose hits that act by an unwanted route or on another target.)
Assay [16] in a line: Trypanosoma cruzi growth suppression in host cells – NIH3T3 host cells, beta-gal luminescence, confirmation (AID 2044).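 Further: intracellular parasites grown in NIH/3T3 mouse fibroblasts as host cells; luminescent beta-galactosidase reporter signal from transgenic T. cruzi replicating inside host cells; inhibitors lower the luminescence signal.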 The assay is classed as functional, cell-based.
A short description of assay [17]: Luminescence Cell-Based Dose Retest to Confirm Inhibitors of Cancer Stem Cells. [Related pubchem assays (depositor defined):AID2717, AID2721]. The note with it: Homo sapiens. Type of assay: functional.

Active and inactive are the calls of the source.
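Wherever AC50 is given: cells exposed to compound for roughly 70 hours or longer before luminescence read.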

Regarding `COc1ccc2oc(=N)c(C(=O)Nc3ccccc3)cc2c1`, the CC50 in assay [1] is > 40 µM (active).
For the compound `COc1cc(NC(=O)c2cccc(Br)c2)nc(OC)n1`, the IC50 in assay [2] is 8.86 µM (active); on Caspase-3, 20.5 µM (active); in [3] it was 35.7 µM (active); in [4] it was 31 µM (active).
Take `CCCOc1ccc(C(=O)CCN2CCCCC2)cc1`: the 50% cytotoxic concentration (CC50) in [1] is > 40 µM (active).
Turning to `O=C(Nc1cccc(S(=O)(=O)N2CCCCC2)c1)Nc1ccc(Cl)cc1Cl`, the EC50 is 8.66 µM (active) in [5] and 8.76 µM (active) in assay [6].
For the compound `Nc1ccccc1Oc1c(F)c(F)c(Oc2ccccc2N)c(F)c1F`, the IC50 was > 20 µM (inactive) in assay [7] and 4.08 µM (active) in [8]. Moreover, the EC50 in assay [9] was > 53 µM (inactive).
As to `Cc1cccc(C(=O)O/N=C/c2c(N3CCOCC3)n(C)c3ccccc23)c1`, the EC50 was > 150 µM (inactive) in assay [10]; 9.98 µM (active) in assay [11]; 10.8 µM (active) in assay [12]; > 120 µM (not active) in [13]; 729 nM (active) in assay [14]; 8.96 µM (active) in assay [15]. For the same compound, the EC50 in [5] is 2.47 µM (active); in assay [16] it was 3.22 µM (active); in [6], 2.35 µM (active).
For the compound `Cc1ccc(-c2nc3sc4c(c3c(=O)n2N)CCCC4)cc1`, the IC50 was 5.25 µM (active) in assay [2], 12.7 µM (active) on Caspase-3, > 100 µM (inactive) in [3] and 18.2 µM (active) in [4].
As to `COc1ccc([N+](=O)[O-])cc1NC(=O)c1ccccc1SC`, the figures for the IC50 in assay [7] and in assay [8] were 1.79 µM (active) and 23 µM (active), respectively. For the same compound, the EC50 in assay [9] was > 53 µM (inactive).
Regarding `CN(C)C1=NP(N(C)C)(N(C)C)=NC(c2ccccc2)=N1`, the results for the IC50 in assay [7] and in [8] were > 20 µM (inactive) and < 0.368 µM (active), respectively. Besides, the EC50 in assay [9] is > 53 µM (inactive).
As for `CCOC(=O)/C=C/c1ccc2oc3ccccc3c(=O)c2c1`, the IC50 in [2] is 3.46 µM (active); at Caspase-3 it was 12.2 µM (active); in assay [3], 42.7 µM (active); in assay [4] it was 16.6 µM (active).
With `COCCn1c(=O)[nH]c(=O)c2c1nc(-c1ccc(-c3ccc(Cl)cc3[N+](=O)[O-])o1)n2Cc1ccccc1`, the EC50 in [5] is 17.3 µM (active); in assay [6] it was 19.4 µM (active).
`CCN1CCN(c2cc(-c3ccccc3)nc3cc(-c4cccc(F)c4)nn23)CC1`: the AC50 in assay [17] was 5.42 µM (active). Moreover, the figures for the EC50 in [5] and in assay [6] were 13.8 µM (active) and 11.1 µM (active), respectively.
Turning to `N#Cc1cccc(NC(=O)Nc2cccs2)c1`, the results for the IC50 in [7] and in assay [8] were > 20 µM (inactive) and < 0.368 µM (active), respectively. The EC50 in assay [9] is > 53 µM (inactive).
Take `O=C(CSc1ncnc2ccccc12)c1cccs1`: the IC50 in assay [2] was 4.7 µM (active); on Caspase-3 it was 37.4 µM (active); in assay [3] it was 17.5 µM (active); in assay [4], 23.9 µM (active).

As a reminder, the CC50 is the concentration that lowers cell viability or growth by half. As usually defined, the AC50 is the concentration at which the activity in the assay is half-maximal.

(Values after ChEMBL document CHEMBL1201862, “PubChem BioAssay data set” (2004).)
